Results from patent publication US8318184B2, “MGLU2 agonists” (Eli Lilly and Company, priority 2009, dated 2012).

Molecular target: T1, human mGlu2 receptor (Homo sapiens, UniProt Q14416)
T1 construct: expressed in transfected cells; co-transfected with rat EAAT1 and Galpha15
Experiment: Human mGlu2 Agonist FLIPR Assay
Type: cell-based
Details: hmGlu2 FLIPR assay, AV-12 cells, relative EC50
Excerpt: AV-12 cell lines, derived from Syrian Hamster fibroblasts and stably expressing the human mGlu2 receptor and co-transfected with the rat glutamate transporter EAAT 1 (Excitatory Amino Acid Transporter 1) and the Gα15 subunit, are used for these studies. The expression of Gα15 allows Gi-coupled receptors to signal through the phospholipase C pathway, resulting in the ability to measure receptor activation by a fluorometric calcium response assay. […]
Intracellular calcium levels are monitored before and after the addition of compounds using a Fluorometric Imaging Plate Reader (FLIPR, Molecular Devices). […] Results are analyzed using Prism v4.03 (GraphPad Software). […] After taking an initial 5-sec fluorescent read on the FLIPR instrument, a compound of the present invention is added to the cell plate (50 μL per well). […] The compound effect is measured as maximal minus minimal peak heights in relative fluorescent units (RFUs) corrected for basal fluorescence measured in the absence of glutamate. […] Agonist effects are quantified as percent stimulation induced by compound alone relative to the maximal glutamate response. All data are calculated as relative EC50 values using a four-parameter logistic curve fitting program (ActivityBase v5.3.1.22).

T1 sequence (Q14416 19-872): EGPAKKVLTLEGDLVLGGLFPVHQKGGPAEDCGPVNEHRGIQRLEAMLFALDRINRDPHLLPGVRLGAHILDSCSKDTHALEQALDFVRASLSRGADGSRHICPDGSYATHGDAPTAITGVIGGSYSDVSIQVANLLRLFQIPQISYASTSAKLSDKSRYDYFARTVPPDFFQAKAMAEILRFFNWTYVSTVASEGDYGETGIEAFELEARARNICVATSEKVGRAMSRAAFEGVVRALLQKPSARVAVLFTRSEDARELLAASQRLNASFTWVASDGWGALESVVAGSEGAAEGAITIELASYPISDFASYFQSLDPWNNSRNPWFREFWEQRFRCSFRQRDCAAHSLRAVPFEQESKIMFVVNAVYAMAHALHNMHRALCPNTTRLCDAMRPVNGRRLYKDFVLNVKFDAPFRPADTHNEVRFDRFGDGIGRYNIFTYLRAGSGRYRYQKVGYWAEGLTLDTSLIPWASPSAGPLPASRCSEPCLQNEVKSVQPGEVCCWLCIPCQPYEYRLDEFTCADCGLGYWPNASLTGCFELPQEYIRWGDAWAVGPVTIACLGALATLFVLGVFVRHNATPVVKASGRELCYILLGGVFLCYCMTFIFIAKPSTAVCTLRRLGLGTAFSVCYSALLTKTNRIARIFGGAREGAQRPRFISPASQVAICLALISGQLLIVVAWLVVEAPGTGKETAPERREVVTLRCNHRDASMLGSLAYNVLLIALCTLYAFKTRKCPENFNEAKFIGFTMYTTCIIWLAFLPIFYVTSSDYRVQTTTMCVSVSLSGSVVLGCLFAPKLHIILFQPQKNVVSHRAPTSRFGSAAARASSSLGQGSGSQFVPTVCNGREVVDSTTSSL

N[C@@]1(C(=O)O)C[C@@H](Sc2nnc[nH]2)[C@H]2[C@H](C(=O)O)[C@H]21 [Example 1, (1R,2S,4R,5R,6R)-2-Amino-4-(4H-1,2,4-triazol-3-ylsulfanyl)bicyclo[3.1.0]hexane-2,6-dicarboxylic acid]
EC50: 0.023 µM
